From US6884774B2, “Cyclic hexapeptide derivatives” (Fujisawa Pharmaceutical Co. Ltd., priority 2000, dated 2005)
Starred links: 1 amine or outer side, 2 acyl side, 3 side chain; linkers in the order of their positions; H or OH if unused. Positions of bridges follow the written chain, without caps; N, C: chain ends. Non-standard residues stand in square brackets, D forms with d. Residues, ends and D or L forms follow the SMILES beside them. *: point of attachment. X2 = C[C@H]1CC[C@@H](N2CCN(c3ccc(-c4nnc(-c5ccc(C(=O)*)cc5)s4)cc3)CC2)CC1; hTyr(3R-OH,3'-OSO3H) = N[C@H](C(=O)O)[C@H](O)Cc1ccc(O)c(OS(=O)(=O)O)c1; X3 = COCCCCCOC1CCN(c2ccc(-c3nn4cc(-c5ccc(C(=O)*)cc5)nc4s3)cc2)CC1; Orn(3R-OH,Nδ-CH(CH2OH)2) = N[C@H](C(=O)O)[C@H](O)CCNC(CO)CO; X4 = COCCCCOc1ccc(-c2nn3cc(-c4ccc(C(=O)*)cc4)nc3s2)cc1; Orn(4R-OH) = O=C([C@H](C[C@@H](O)CN[*:3])N[*:1])[*:2]; X1 = COCCCCCCOc1ccc(-c2cc(-c3ccc(C(=O)*)cc3)no2)cc1; Pro(3S-OH,4S-Me) = C[C@H]1CN[C@H](C(=O)O)[C@H]1O; Hyp = O=C(O)[C@@H]1C[C@@H](O)CN1

Tested on: Candida albicans FP-633
Assay type: cell-based
Conditions: FP-633, 24 h, pH 7.3
Experimental: In vitro antimicrobial activity of the object compound of Examples 4, 9, 25 and 30 disclosed later was determined by MICs in mouse serum as described below. The MICs in mouse serum were determined by the microdilution method using ICR mouse serum buffered with 20 mM HEPES buffer (pH 7.3) as a test medium. Inoculum suspension of 10^6 cells/ml were prepared by a hemocytometric procedure and diluted to obtain an inoculum size of approximately 1.0×10^3 cells/ml. Microplates were incubated at 37° C. for 24 hours in 5% CO2. The MICs were defined as the lowest concentrations at which no visible growth was observed.

| MIC | Compound |
| --- | --- |
| <0.3 µg/mL | COCCCCCCOc1ccc(-c2cc(-c3ccc(C(=O)N[C@H]4C[C@@H](O)CNC(=O)[C@@H]5[C@@H](O)[C@@H](C)CN5C(=O)[C@H]([C@H](O)CCNC(CO)CO)NC(=O)[C@H]([C@H](O)Cc5ccc(O)c(OS(=O)(=O)O)c5)NC(=O)[C@@H]5C[C@@H](O)CN5C(=O)[C@H]([C@@H](C)O)NC4=O)cc3)no2)cc1 [Example 25] (X1-[Orn(4R-OH)]T[Hyp][hTyr(3R-OH,3'-OSO3H)][Orn(3R-OH,Nδ-CH(CH2OH)2)][Pro(3S-OH,4S-Me)]; lactam 1-C) |
| <0.3 µg/mL | COCCCCOc1ccc(-c2nn3cc(-c4ccc(C(=O)N[C@H]5C[C@@H](O)CNC(=O)[C@@H]6[C@@H](O)[C@@H](C)CN6C(=O)[C@H]([C@H](O)CCNC(CO)CO)NC(=O)[C@H]([C@H](O)Cc6ccc(O)c(OS(=O)(=O)O)c6)NC(=O)[C@@H]6C[C@@H](O)CN6C(=O)[C@H]([C@@H](C)O)NC5=O)cc4)nc3s2)cc1 [Example 30] (X4-[Orn(4R-OH)]T[Hyp][hTyr(3R-OH,3'-OSO3H)][Orn(3R-OH,Nδ-CH(CH2OH)2)][Pro(3S-OH,4S-Me)]; lactam 1-C) |
| <0.3 µg/mL | COCCCCCOC1CCN(c2ccc(-c3nn4cc(-c5ccc(C(=O)N[C@H]6C[C@@H](O)CNC(=O)[C@@H]7[C@@H](O)[C@@H](C)CN7C(=O)[C@H]([C@H](O)CCNC(CO)CO)NC(=O)[C@H]([C@H](O)Cc7ccc(O)c(OS(=O)(=O)O)c7)NC(=O)[C@@H]7C[C@@H](O)CN7C(=O)[C@H]([C@@H](C)O)NC6=O)cc5)nc4s3)cc2)CC1 [Example 4] (X3-[Orn(4R-OH)]T[Hyp][hTyr(3R-OH,3'-OSO3H)][Orn(3R-OH,Nδ-CH(CH2OH)2)][Pro(3S-OH,4S-Me)]; lactam 1-C) |
| <0.3 µg/mL | C[C@@H](O)[C@@H]1NC(=O)[C@@H](NC(=O)c2ccc(-c3nnc(-c4ccc(N5CCN([C@H]6CC[C@@H](C)CC6)CC5)cc4)s3)cc2)C[C@@H](O)CNC(=O)[C@@H]2[C@@H](O)[C@@H](C)CN2C(=O)[C@H]([C@H](O)CCNC(CO)CO)NC(=O)[C@H]([C@H](O)Cc2ccc(O)c(OS(=O)(=O)O)c2)NC(=O)[C@@H]2C[C@@H](O)CN2C1=O [Example 9] (X2-[Orn(4R-OH)]T[Hyp][hTyr(3R-OH,3'-OSO3H)][Orn(3R-OH,Nδ-CH(CH2OH)2)][Pro(3S-OH,4S-Me)]; lactam 1-C) |
